Patent US11236047B2 (ASTEX THERAPEUTICS LIMITED, priority 2017, dated 2022)
Read-outs that look alike come from different tables or passages of the source.

Experiments:
SN40R2 cells = experiment: Protocol B: SN40R2 CellTiter-Glo luminescent cell viability assay
Protocol: Protocol B: SJSA-1 and SN40R2 Assays
(§1) The CellTiter-Glo® Luminescent Cell Viability Assay is a homogeneous method to determine the number of viable cells in culture based on quantitation of the ATP present, which signals the presence of metabolically active cells. […] 100 μl of CTG reagent (Promega #G7573) was added to all wells and luminescence was measured on the topcount. The EC50 values were determined from a sigmoidal 4 parameter curve fit using XLfit in conjunction with Activity Base (IDBS; Guildford, Surrey, UK).

SJSA-1 cells = experiment: Protocol B: SJSA-1 CellTiter-Glo luminescent cell viability assay
Protocol: Protocol B: SJSA-1 and SN40R2 Assays
as §1

MDM2-p53 interaction = MDM2-p53 interaction (Homo sapiens (Human), UniProt Q00987); conditions: for inhibition at 0.1 µM: read-out: MDM2 % inhibition @0.10; for inhibition at 0.001 µM: read-out: MDM2 % inhibition @0.0010; for inhibition at 0.03 µM: read-out: MDM2 % inhibition @0.030
Protocol: MDM2-053 Interaction Using a 96-Well Plate Binding Assay (ELISA)
The ELISA assay was performed in streptavidin coated plates which were preincubated with 200 μl per well of 1 μg ml^−1 biotinylated IP3 peptide. The plates were ready to use for MDM2 binding after washing the plate with PBS.
The bound HRP activity was measured by enhanced chemiluminesence (ECL™, Amersham Biosciences) using the oxidation of the diacylhydrazide substrate, luminol, to generate a quantifiable light signal. The percentage of MDM2 inhibition at a given concentration is calculated as the [1−(RLU detected in the compound treated sample−RLU negative DMSO control)÷(RLU of DMSO positive and negative controls)]×100 or as the (RLU detected in the compound treated sample÷RLU of DMSO controls)×100. The IC50 was calculated using a plot of % MDM2 inhibition vs concentration and is the average of two or three independent experiments.

[1] = test system: SN40R2 cells (p53 mutated, MDM2 amplified osteosarcoma); experiment: Protocol A: SN40R2 growth inhibition (sulphorhodamine B); conditions: for inhibition at 50 µM: read-out: SN40R2 % inhibition at 50
Protocol: Protocol A: SJSA-1 and SN40R2 Assays
The MDM2 amplified cell lines tested were an isogenic matched pair of p53 wild-type and mutated osteosarcoma (SJSA-1 and SN40R2, respectively). […] Following incubation with the SRB dye at room temperature for 30 min, the plates were washed with 1% acetic acid and left to dry. […] The GI50 was calculated by non-linear regression analysis of the data using Prism v4.0 statistical software.

[2] = read-out: SN40R2 % inhibition at 10, Protocol B, SN40R2, at 10 μM
[3] = read-out: SJSA1 IC50, Protocol B, SJSA-1
[4] = Homo sapiens, SJSA-1, read-out: SJSA1 IC50 (μM), Protocol B, SJSA-1

Sequence of MDM2-p53 interaction (Q00987 whole entry): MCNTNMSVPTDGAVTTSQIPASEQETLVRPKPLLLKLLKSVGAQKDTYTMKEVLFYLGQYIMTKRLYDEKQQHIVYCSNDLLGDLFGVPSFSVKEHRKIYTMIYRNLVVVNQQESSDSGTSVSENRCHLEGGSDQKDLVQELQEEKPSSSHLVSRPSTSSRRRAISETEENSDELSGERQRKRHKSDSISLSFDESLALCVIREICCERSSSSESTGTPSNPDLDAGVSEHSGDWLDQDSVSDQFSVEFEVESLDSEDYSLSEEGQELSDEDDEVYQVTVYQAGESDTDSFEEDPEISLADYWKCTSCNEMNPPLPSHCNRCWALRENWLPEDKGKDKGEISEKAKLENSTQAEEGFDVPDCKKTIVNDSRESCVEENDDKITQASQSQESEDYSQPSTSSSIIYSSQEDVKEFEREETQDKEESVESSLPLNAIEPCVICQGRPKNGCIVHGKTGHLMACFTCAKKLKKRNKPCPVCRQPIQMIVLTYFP

Structure (SMILES): CCC(O)(c1cc(F)c2c(c1)C(=O)N(Cc1ccc(C#N)cn1)[C@@]2(O[C@H]1CCOC1)c1ccc(Cl)cc1)c1ccn(C)n1 (single isomer, unassigned) [Example 335]
- inhibition at 10 µM (SN40R2 cells; [2]): 7%
- IC50 (SJSA-1 cells; [3]): 2.8 µM
- inhibition at 0.1 µM (MDM2-p53 interaction): 51%

Structure (SMILES): CCC(O)(c1cc(F)c2c(c1)C(=O)N(Cc1ccc(C#N)cn1)[C@@]2(OCCOC)c1ccc(Cl)cc1)c1cn(C)cn1 (single isomer, unassigned) [Example 430]
- inhibition at 10 µM (SN40R2 cells; [2]): 4%
- inhibition at 50 µM [1]: 33%
- inhibition at 0.001 µM (MDM2-p53 interaction): 59%

Structure (SMILES): CCC(O)(c1cc(F)c2c(c1)C(=O)N(Cc1ncc(C#N)cn1)[C@@]2(OCC1(C#N)CC1)c1ccc(Cl)cc1)c1cn(C)cn1 (single isomer, unassigned) [Example 462]
- inhibition at 10 µM (SN40R2 cells; [2]): 4%
- inhibition at 50 µM [1]: 37%
- inhibition at 0.001 µM (MDM2-p53 interaction): 80%

Structure (SMILES): CCC(O)(c1cc(F)c2c(c1)C(=O)N(Cc1ncc(Cl)cn1)[C@@]2(O[C@H]1CCOC1)c1ccc(Cl)cc1)c1cn(C)cn1 (single isomer, unassigned) [Example 474]
- inhibition at 10 µM (SN40R2 cells; [2]): 12%
- IC50 (SJSA-1 cells; [3]): 1.3 µM
- inhibition at 0.03 µM (MDM2-p53 interaction): 38%

Structure (SMILES): CCC(O)(c1cc(F)c2c(c1)C(=O)N(Cc1ncc(Cl)cn1)[C@@]2(O[C@H]1CCOC1)c1ccc(Cl)cc1)c1cn(C)cn1 (single isomer, unassigned) [Example 475]
- inhibition at 50 µM [1]: 46%
- IC50 (SJSA-1 cells; [3]): 0.022 µM
- inhibition at 0.001 µM (MDM2-p53 interaction): 71%

Structure (SMILES): CCC(O)(c1cc(F)c2c(c1)C(=O)N(Cc1ncc(Cl)cn1)[C@@]2(OCC1(CO)CC1)c1ccc(Cl)cc1)c1cn(C)cn1 (single isomer, unassigned) [Example 476]
- inhibition at 10 µM (SN40R2 cells; [2]): 4%
- IC50 (SJSA-1 cells; [3]): 0.6 µM
- inhibition at 0.03 µM (MDM2-p53 interaction): 51%

Structure (SMILES): CCC(O)(c1cc(F)c2c(c1)C(=O)N(Cc1ncc(Cl)cn1)[C@@]2(OCCO)c1ccc(Cl)cc1)[C@H]1CC[C@H](O)CC1 (single isomer, unassigned) [Example 517]
- inhibition at 50 µM [1]: 26%
- IC50 (SJSA-1 cells; [3]): 0.01 µM
- inhibition at 0.001 µM (MDM2-p53 interaction): 82%

Structure (SMILES): CCC(O)(CN1CCNCC1)c1cc(F)c2c(c1)C(=O)N(Cc1ncc(Cl)cn1)[C@@]2(OCC1(C#N)CC1)c1ccc(Cl)cc1 (single isomer, unassigned) [Example 536]
- inhibition at 10 µM (SN40R2 cells; [2]): 46%
- IC50 (SJSA-1 cells; [3]): 0.13 µM
- inhibition at 0.001 µM (MDM2-p53 interaction): 64%

Structure (SMILES): CCC(O)(CN1CCNCC1)c1cc(F)c2c(c1)C(=O)N(Cc1ncc(Cl)cn1)[C@@]2(OCC1(F)COC1)c1ccc(Cl)cc1 (single isomer, unassigned) [Example 538]
- inhibition at 10 µM (SN40R2 cells; [2]): 43%
- IC50 (SJSA-1 cells; [3]): 2.2 µM
- inhibition at 0.03 µM (MDM2-p53 interaction): 44%

Structure (SMILES): CCC(O)(c1cc(F)c2c(c1)C(=O)N(Cc1ncc(Cl)cn1)[C@@]2(O[C@H]1CCOC1)c1ccc(Cl)cc1)C1(F)CCNCC1 (single isomer, unassigned) [Example 540]
- inhibition at 10 µM (SN40R2 cells; [2]): 62%
- IC50 (SJSA-1 cells; [3]): 1.8 µM
- inhibition at 0.03 µM (MDM2-p53 interaction): 33%

Structure (SMILES): CN1CCC(C(C)(O)c2cc(F)c3c(c2)C(=O)N(Cc2ncc(Cl)cn2)[C@@]3(OCC2(CO)CC2)c2ccc(Cl)cc2)CC1 (single isomer, unassigned) [Example 554]
- inhibition at 10 µM (SN40R2 cells; [2]): 11%
- inhibition at 50 µM [1]: 46%
- inhibition at 0.001 µM (MDM2-p53 interaction): 74%

Structure (SMILES): CC(C)(O)c1cc(F)c2c(c1)C(=O)N(Cc1ccc(Cl)cc1)[C@@]2(OCC1(CO)CC1)c1ccc(Cl)cc1 [Example 2, (3R)-3-(4-chlorophenyl)-2-[(4-chlorophenyl)methyl]-4-fluoro-3-{[1-(hydroxymethyl)cyclopropyl]methoxy}-6-(2-hydroxypropan-2-yl)-2,3-dihydro-1H-isoindol-1-one]
- IC50 ([1]; 72 h, read-out: SN40R2 IC50 (μM) (Protocol A)): 17 µM

Structure (SMILES): CCC(O)(c1cc(F)c2c(c1)C(=O)N(Cc1ncc(Cl)cc1O)[C@@]2(OCCO)c1ccc(Cl)cc1)c1cn(C)cn1 (stereo partly drawn) [Example 443, (3R)-2-[(5-chloro-3-hydroxypyridin-2-yl)methyl]-3-(4-chlorophenyl)-4-fluoro-6-[1-hydroxy-1-(1-methyl-1H-imidazol-4-yl)propyl]-3-(2-hydroxyethoxy)-2,3-dihydro-1H-isoindol-1-one]
- inhibition at 10 µM (SN40R2 cells; read-out: SN40R2 % inhibition at 10): 3%
- IC50 ([1]; read-out: SN40R2 IC50 (μM)): 38 µM
- IC50 (SJSA-1 cells; [4]): 0.093 µM

Structure (SMILES): CCC(O)(c1cc(F)c2c(c1)C(=O)N(Cc1ccc(C#N)cn1)[C@@]2(O[C@H]1CCOC1)c1ccc(Cl)cc1)C1(F)CCOCC1 (stereo partly drawn) [Example 446, 6-{[(1R)-1-(4-chlorophenyl)-7-fluoro-5-[1-(4-fluorooxan-4-yl)-1-hydroxypropyl]-3-oxo-1-[(3S)-oxolan-3-yloxy]-2,3-dihydro-1H-isoindol-2-yl]methyl}pyridine-3-carbonitrile]
- IC50 ([1]; read-out: SN40R2 IC50 (μM)): 29 µM
- IC50 (SJSA-1 cells; [3]): 0.023 µM

Structure (SMILES): CCC(O)(c1cc(F)c2c(c1)C(=O)N(Cc1ncc(Cl)cn1)[C@@]2(OCC1(C(N)=O)CC1)c1ccc(Cl)cc1)c1cn(C)cn1 (stereo partly drawn) [Example 486, 1-({[(1R)-1-(4-chlorophenyl)-2-[(5-chloropyrimidin-2-yl)methyl]-7-fluoro-5-[1-hydroxy-1-(1-methyl-1H-imidazol-4-yl)propyl]-3-oxo-2,3-dihydro-1H-isoindol-1-yl]oxy}methyl)cyclopropane-1-carboxamide]
- inhibition at 50 µM [1]: 10%
- IC50 (SJSA-1 cells; [3]): 0.051 µM
- inhibition at 0.001 µM (MDM2-p53 interaction): 59%

Structure (SMILES): CC[C@@](O)(c1cc(F)c2c(c1)C(=O)N(Cc1ncc(C#N)cn1)[C@@]2(O[C@H]1CCOC1)c1ccc(Cl)cc1)C1CCC(O)CC1 (stereo partly drawn) [Example 503, 2-{[(1R)-1-(4-chlorophenyl)-7-fluoro-5-{1-hydroxy-1-[trans-4-hydroxycyclohexyl]propyl}-3-oxo-1-[(3S)-oxolan-3-yloxy]-2,3-dihydro-1H-isoindol-2-yl]methyl}pyrimidine-5-carbonitrile]
- inhibition at 10 µM (SN40R2 cells; [2]): 13%
- IC50 (SJSA-1 cells; [4]): 0.011 µM
- inhibition at 0.001 µM (MDM2-p53 interaction): 87%

Structure (SMILES): CC[C@](O)(c1cc(F)c2c(c1)C(=O)N(Cc1ncc(C#N)cn1)[C@@]2(O[C@H]1CCOC1)c1ccc(Cl)cc1)C1(F)CCOCC1 [Example 508, 2-{[(1R)-1-(4-chlorophenyl)-7-fluoro-5-[(1S)-1-(4-fluorooxan-4-yl)-1-hydroxypropyl]-3-oxo-1-[(3S)-oxolan-3-yloxy]-2,3-dihydro-1H-isoindol-2-yl]methyl}pyrimidine-5-carbonitrile]
- inhibition at 10 µM (SN40R2 cells; [2]): 9%
- inhibition at 10 µM (SJSA-1 cells; Homo sapiens, SJSA-1, read-out: SJSA1 % inhibition at 10): 11%
- inhibition at 0.1 µM (MDM2-p53 interaction): 17%

Structure (SMILES): CCC(O)(c1cc(F)c2c(c1)C(=O)N(Cc1ncc(C#N)cn1)[C@@]2(OCCO)c1ccc(Cl)cc1)[C@H]1CC[C@H](O)CC1 (stereo partly drawn) [Example 510, 2-{[(1R)-1-(4-chlorophenyl)-7-fluoro-5-{1-hydroxy-1-[trans-4-hydroxycyclohexyl]propyl}-1-(2-hydroxyethoxy)-3-oxo-2,3-dihydro-1H-isoindol-2-yl]methyl}pyrimidine-5-carbonitrile]
- inhibition at 10 µM (SN40R2 cells; [2]): 9%
- inhibition at 50 µM [1]: 5%
- inhibition at 0.001 µM (MDM2-p53 interaction): 79%

Structure (SMILES): [2H]C([2H])(O)C1(C([2H])([2H])O[C@]2(c3ccc(Cl)cc3)c3c(F)cc(C(C)(C)O)cc3C(=O)N2Cc2ncc(C#N)cn2)CC1 [Example 513, 2-{[(1R)-1-(4-chlorophenyl)-7-fluoro-1-({1-[hydroxydideuteromethyl]cyclopropyl}dideuteromethoxy)-5-(2-hydroxypropan-2-yl)-3-oxo-2,3-dihydro-1H-isoindol-2-yl]methyl}pyrimidine-5-carbonitrile]
- inhibition at 10 µM (SN40R2 cells; [2]): 4%
- inhibition at 50 µM [1]: 19%

Structure (SMILES): CC[C@@](O)(c1cc(F)c2c(c1)C(=O)N(Cc1ncc(Cl)cn1)[C@@]2(OC)c1ccc(Cl)cc1)C1CCN(C2COC2)CC1 [Example 551, (3R)-3-(4-chlorophenyl)-2-[(5-chloropyrimidin-2-yl)methyl]-4-fluoro-6-[(1S)-1-hydroxy-1-[1-(oxetan-3-yl)piperidin-4-yl]propyl]-3-methoxy-2,3-dihydro-1H-isoindol-1-one]
- inhibition at 10 µM (SN40R2 cells; [2]): 13%
- inhibition at 0.001 µM (MDM2-p53 interaction): 70%

Structure (SMILES): CC[C@@](O)(c1cc(F)c2c(c1)C(=O)N(Cc1ncc(Cl)cn1)[C@@]2(OCC1(CO)CC1)c1ccc(Cl)cc1)C1CCN(C)CC1 [Example 556, (3R)-3-(4-chlorophenyl)-2-[(5-chloropyrimidin-2-yl)methyl]-4-fluoro-6-[(1S)-1-hydroxy-1-(1-methylpiperidin-4-yl)propyl]-3-{[1-(hydroxymethyl)cyclopropyl]methoxy}-2,3-dihydro-1H-isoindol-1-one]
- inhibition at 10 µM (SN40R2 cells; [2]): 14%
- inhibition at 0.001 µM (MDM2-p53 interaction): 91%

Structure (SMILES): CC[C@@](O)(c1cc(F)c2c(c1)C(=O)N(Cc1ncc(Cl)cn1)[C@@]2(O[C@H]1C[C@@H](O)C1)c1ccc(Cl)cc1)C1CCN(C)CC1 [Example 560, (3R)-3-(4-chlorophenyl)-2-[(5-chloropyrimidin-2-yl)methyl]-4-fluoro-6-[(1S)-1-hydroxy-1-(1-methylpiperidin-4-yl)propyl]-3-[cis-3-hydroxycyclobutoxy]-2,3-dihydro-1H-isoindol-1-one]
- inhibition at 10 µM (SN40R2 cells; [2]): 3%
- inhibition at 0.001 µM (MDM2-p53 interaction): 30%

Structure (SMILES): CC[C@@](O)(c1cc(F)c2c(c1)C(=O)N(Cc1ncc(Cl)cc1O)[C@@]2(O[C@H]1CCOC1)c1ccc(Cl)cc1)C1CCN(C)CC1 [Example 568, 2-[(5-chloro-3-hydroxypyridin-2-yl)methyl]-3-(4-chlorophenyl)-4-fluoro-6-[(1S)-1-hydroxy-1-(1-methylpiperidin-4-yl)propyl]-3-[(3S)-oxolan-3-yloxy]-2,3-dihydro-1H-isoindol-1-one]
- inhibition at 10 µM (SN40R2 cells; [2]): 36%
- inhibition at 0.001 µM (MDM2-p53 interaction): 76%
